Measurements reported in patent publication US20070072222A1, “FABP4 as biomarker for toxic effect” (priority 2005, published 2007).
Values belong to the compound of their own block, whether it stands above or below them.

Legend:
[1] = test system: rat FABP4 (SEQ. ID NO: 2); assay: FABP4 gene expression in rat liver (Affymetrix microarray RG U34A); assay type: in vivo, Wistar rats; details: for FABP4 expression relative to time matched vehicle control, Affymetrix result (Fold change): rat liver
Protocol: (§1) The expression levels of FABP4 of the mice (SEQ. ID NO: 3) were measured using Affymetrix microarrays (MEA 230 plus, probe sets: 1417023_a_at, 1424155_at, 1425809_at, 1451263_a_at) or Applied Biosystems Assays on Demand (assay ID: Mm00445880_ml). The expression levels of FABP4 of the rat (SEQ. ID NO: 2) were measured using Affymetrix microarrays (RG U34A, probe set: rc_AI169612_at) or Applied Biosystems Assays on Demand (assay ID: Rn00670361_ml). The expression levels of FABP4 of the monkeys were not measured.
(§2) Wistar rats (RCC Ltd, Füllinsdorf): • treatment with INDOMETHACIN (1-(4-Chlorobenzoyl)-5-methoxy-2-methyl-3-indoleacetic acid, Sigma I7378), single dose p.o. (orally); doses were 0, 2, 10 and 20 mg/kg • Treatment with INDOMETHACIN (1-(4-Chlorobenzoyl)-5-methoxy-2-methyl-3-indoleacetic acid, Sigma I7378) for 7 days; doses were 0, 2, and 5 mg/kg/day INDOMETHACIN was dissolved in corn oil. Treated animals were dosed orally (p.o.). The expression levels of FABP4 of the rat (SEQ. ID NO: 2) were measured using Affymetrix microarrays (RG U34A, probe sets: rc_AI169612_at) or Applied Biosystems Assays on Demand (assay ID: Rn00670361_ml).

[2] = test system: mice; assay: Oral repeat-dose toxicity study in mice; assay type: in vivo, mouse (CD-1, C57BL6)
Protocol: (§3) CD-1 mice (Charles River Laboratories, UK): • treatment with 3-{1-[2-(2-CHLORO-PHENYL)-5-METHYL-OXAZOL-4-YLMETHYL]-1H-INDOL-5-YL}-2-ETHOXY-PROPIONIC ACID for 1 day; doses were 0, 0.2 and 3 mg/kg • treatment with 3-{1-[2-(2-CHLORO-PHENYL)-5-METHYL-OXAZOL-4-YLMETHYL]-1H-INDOL-5-YL}-2-ETHOXY-PROPIONIC ACID for 10 days; doses were 0, 0.2 and 3 mg/kg • treatment with 3-{1-[2-(2-CHLORO-PHENYL)-5-METHYL-OXAZOL-4-YLMETHYL]-1H-INDOL-5-YL}-2-ETHOXY-PROPIONIC ACID for 14 days; doses were 0, 0.6 and 15 mg/kg
(§4) C57BL6 mice (RCC Ltd, Füllinsdorf): • treatment with 3-{1-[2-(2-CHLORO-PHENYL)-5-METHYL-OXAZOL-4-YLMETHYL]-1H-INDOL-5-YL}-2-ETHOXY-PROPIONIC ACID for 1 day; doses were 0, 0.2 and 3 mg/kg • treatment with 3-{1-[2-(2-CHLORO-PHENYL)-5-METHYL-OXAZOL-4-YLMETHYL]-1H-INDOL-5-YL}-2-ETHOXY-PROPIONIC ACID for 10 days; doses were 0, 0.2 and 3 mg/kg
(§5) Cynomolgus Monkey (macaca fascicularis): • treatment with 3-{1-[2-(2-CHLORO-PHENYL)-5-METHYL-OXAZOL-4-YLMETHYL]-1H-INDOL-5-YL}-2-ETHOXY-PROPIONIC ACID for 28 days; doses were 0, 0.015, 0.09 and 0.31 mg/kg • Treatment with 3-{1-[2-(2-CHLORO-PHENYL)-5-METHYL-OXAZOL-4-YLMETHYL]-1H-INDOL-5-YL}-2-ETHOXY-PROPIONIC ACID for 16 weeks; doses were […], 0.1, 0.3 and 1 mg/kg 3-{1-[2-(2-CHLORO-PHENYL)-5-METHYL-OXAZOL-4-YLMETHYL]-1H-INDOL-5-YL}-2-ETHOXY-PROPIONIC ACID was dissolved in 20% propylene glycol/phosphate buffer, pH8. Treated animals were dosed orally (p.o.).

[3] = test system: monkey tissue (liver, heart, skeletal muscle, Brown adipose tissue); assay: Oral repeat-dose toxicity study in monkeys; assay type: in vivo, Cynomolgus Monkey (macaca fascicularis); details: at similar exposure levels as in mice
Protocol: as §5

[4] = test system: mouse FABP4 (SEQ. ID NO: 3); assay: FABP4 gene expression in mouse liver (Affymetrix microarray MEA 230 plus); assay type: in vivo, mouse (CD1, C57Bl/6); details: mice, after p.o. administration
Protocol: as §3, §4, §1

[5] = test system: rat tissue (liver, heart, skeletal muscle, Brown adipose tissue); assay: Oral repeat-dose toxicity study in rats; assay type: in vivo, Wistar rats; details: at similar exposure levels as in mice
Protocol: Wistar rats (RCC Ltd, Füllinsdorf): • treatment with 3-{1-[2-(2-CHLORO-PHENYL)-5-METHYL-OXAZOL-4-YLMETHYL]-1H-INDOL-5-YL}-2-ETHOXY-PROPIONIC ACID for 14 days; doses were 0, 0.3 and 1.2 mg/kg • Treatment with 3-{1-[2-(2-CHLORO-PHENYL)-5-METHYL-OXAZOL-4-YLMETHYL]-1H-INDOL-5-YL}-2-ETHOXY-PROPIONIC ACID for 28 days; doses were 0, 0.1, 0.5 and 2.5 mg/kg
as §5

[6] = test system: rat FABP4 (SEQ. ID NO: 2); assay: FABP4 mRNA expression in rat liver by PCR (Applied Biosystems Assays on Demand); assay type: in vivo, Wistar rats
Protocol: as §1, §2

[7] = test system: livers; assay: Liver histopathology and clinical biochemistry in indomethacin treated rats; assay type: in vivo, Wistar rats
Protocol: as §2

[8] = single dose 20 mg/kg, necropsy 24 hours

Compound: ClC(Cl)(Cl)Cl [carbon tetrachloride]
Expression of FABP4 in liver ([1]; rats, after administration): an induction of the expression of FABP4 was also found

Compound: CCOC(Cc1ccc2c(ccn2Cc2nc(-c3ccccc3Cl)oc2C)c1)C(=O)O (stereo not drawn) [3-{1-[2-(2-CHLORO-PHENYL)-5-METHYL-OXAZOL-4-YLMETHYL]-1H-INDOL-5-YL}-2-ETHOXY-PROPIONIC ACID]
Dose at which mortality occurred ([2]; mice, p.o.): ≥ 0.6 mg/kg/day | Exposure at which dose-dependent severe toxicity was found ([2]; mouse, in vivo, po): ≥ 50 × anticipated human exposure | Findings in other tissues ([2]; mouse, in vivo, po): degeneration of heart and skeletal muscle, and brown adipose tissue | Expression of FABP4 in liver ([1]; rat, in vivo): not induced | Toxicity in tissue (liver, heart, skeletal muscle, brown adipose tissue) [3]: not observed | Expression of fatty acid binding protein 4 in liver [4]: strong induction | Toxicity in tissue (liver, heart, skeletal muscle, brown adipose tissue) [5]: not observed

FABP4 expression relative to time matched vehicle control, Affymetrix result (Fold change) ([1]; 2 mg/kg/day for 7 days): 1 Fold change | FABP4 expression relative to time matched vehicle control, Affymetrix result (Fold change) ([1]; 5 mg/kg/day for 7 days): 79.59 Fold change | Expression of fatty acid binding protein 4 in liver (Affymetrix gene arrays) ([1]; rats, 24 hours after single dose 10 or 20 mg/kg, and 7 consecutive days 5 mg/kg/day): strong induction | FABP4 expression relative to time matched vehicle control, PCR result (Fold change) ([6]; 5 mg/kg/day for 7 days): 26.92 Fold change
Compound: COc1ccc2c(c1)c(CC(=O)O)c(C)n2C(=O)c1ccc(Cl)cc1 [indomethacin, 1-(4-Chlorobenzoyl)-5-methoxy-2-methyl-3-indoleacetic acid]
Expression of FABP4 in liver ([1]; Wistar, rat, in vivo): an induction of the expression of FABP4 was also found | FABP4 expression relative to time matched vehicle control, Affymetrix result (Fold change) ([1]; single dose 2 mg/kg, necropsy 6 hours): 1 Fold change | FABP4 expression relative to time matched vehicle control, Affymetrix result (Fold change) ([1]; single dose 2 mg/kg, necropsy 24 hours): 1 Fold change | FABP4 expression relative to time matched vehicle control, Affymetrix result (Fold change) ([1]; single dose 10 mg/kg, necropsy 6 hours): 1 Fold change | FABP4 expression relative to time matched vehicle control, Affymetrix result (Fold change) ([1]; single dose 10 mg/kg, necropsy 24 hours): 4.13 Fold change | FABP4 expression relative to time matched vehicle control, Affymetrix result (Fold change) ([1]; single dose 20 mg/kg, necropsy 6 hours): 1 Fold change | FABP4 expression relative to time matched vehicle control, Affymetrix result (Fold change) [1, 8]: 8.41 Fold change | FABP4 expression relative to time matched vehicle control, PCR result (Fold change) [6, 8]: 13.68 Fold change | Clinical biochemistry parameters ([7]; especially 10 and 20 mg/kg single dose and 5 mg/kg/day repeated treatment): changes of different clinical biochemistry parameters indicative of liver changes | Liver histopathology ([7]; p.o., dose dependent): Slight histopathological alterations (hepatocellular hypertrophy) | Hepatocellular glycogen deposition ([7]; single administration of 10 or 20 mg/kg or 5 mg/kg/day for 7 consecutive days): Decreased hepatocellular glycogen deposition

Compound: lipopolysaccharide
Expression of FABP4 in liver ([1]; rats, after administration): an induction of the expression of FABP4 was also found
